Experimental data as given in patent publication US9242945B2, “Substituted 2-benzylidene-2H-benzo[b][1,4]thiazin-3(4H)-ones, derivatives thereof, and therapeutic uses thereof” (TEMPLE UNIVERSITY—OF THE COMMONWEALTH SYSTEM OF HIGHER …, priority 2011, dated 2016).
pIC50: −log10 of the molar value.

Columns and labels:
BT-474 = assay: Cancer cell cytotoxicity assay, BT-474; type: cell-based; conditions: Homo sapiens; BT-474, Breast Cancer
Procedure: (§1) The effect of the compounds of the invention on tumor cells was determined by the assay described by Latham et al., Oncogene 12:827-837 (1996). Tumor cells K562 (chronic myelogenous leukemia; leukemia cell line +ve for Bcr-Abl) or DU145 (prostate cancer) were plated in 12-well dishes at a cell density of 2.5×10^4 cells well. The plated cells were treated 24 hours later with a compound of the invention dissolved in DMSO at multiple concentrations ranging from 0.01 μM to 100 μM. The plates were examined 96 hours later under an inverted microscope, Olympus CK-2 using a 10× objective, and compound activity was noted by physical observation. When necessary, the total number of viable cells was determined by trypsinizing the wells and counting the number of viable cells, as determined by trypan blue exclusion, using a hemacytometer. Where “Lower” and “Upper” value are provided in Table 5, the IC50 was determined to be within that range. […]
(§2) The cytotoxicity of Compound 42, (Z)-6-((2,6-dichlorobenzyl)sulfonyl)-2-(4-hydroxy-3-nitrobenzylidene)-2H-benzo[b][1,4]thiazin-3(4H)-one, was determined according the assay method of Example 7 on the prostate (androgen dependent or independent), breast and pancreatic cancer cell lines listed in Table 6A, below, and the additional cell lines listed in Table 6B, below. […]

PC3 = assay: Cancer cell cytotoxicity assay, PC3; type: cell-based; conditions: Homo sapiens, PC-3; PC3, Prostate Cancer
Procedure: as §1, §2

[1] = tested on: MDA.MB-231 breast cancer cells; assay: Cell cycle arrest in cancer cells; type: cell-based; conditions: increasing concentrations
From the text: MDA.MB-231 breast cancer cells treated with increasing concentrations Compound 42

22Rv1 = assay: Cancer cell cytotoxicity assay, 22Rv1; type: cell-based; conditions: Homo sapiens; 22Rv1, Prostate Cancer
Procedure: as §1, §2

GRANTA = assay: Cancer cell cytotoxicity assay, GRANTA; type: cell-based; conditions: Mantle cell lymphoma
Procedure: as §1, §2

PIM1 = target: T1, PIM1 (Homo sapiens, UniProt P11309); assay: PIM1 inhibition (32P-ATP kinase assay); type: biochemical; conditions: K9 Peptide substrate, 20 μM cold ATP
T1 construct: PIM1 (human full length protein; Invitrogen PV3503); purchased Invitrogen PV3503
Procedure: The ability of Compound 42 to inhibit the activity of the kinase proto-ocogene pim-was determined as follows. Ten nanograms of PIM1 (human full length protein; Invitrogen PV3503) was diluted into kinase buffer (20 mM Tris pH 7.5, 10 mM MgCl2, 0.01% NP-40, 1 mM EGTA, 2 mM DTT) and incubated with varying concentrations of Compound 42 at room temperature for 30 minutes. The kinase reactions were initiated by the addition of 20 μM of PIM1 specific synthetic peptide substrate (K9 Peptide; p70S6 Kinase Substrate; AnaSpec, San Jose, Calif.), 20 μM cold ATP, and 20 μCi γ-^32P-ATP. The reactions were incubated at 30° C. for 20 minutes and terminated by the addition of 0.5M o-Phosphoric acid. 10 μl of the reaction mixture was spotted on a P-30 Filtermat (PerkinElmer) and developed using autoradiography or phosphorimaging.

HMSC.hTERT = assay: Cytotoxicity assay, human mesenchymal stem cell line HMSC.hTERT; type: cell-based
Procedure: as §1, §2

HCT-116 = assay: Cancer cell cytotoxicity assay, HCT-116; type: cell-based; conditions: Homo sapiens; HCT-116, Colon cancer
Procedure: as §1, §2

A549 = assay: Cancer cell cytotoxicity assay, A549; type: cell-based; conditions: Homo sapiens; A549, Non-small cell lung cancer
Procedure: as §1, §2

LnCap = assay: Cancer cell cytotoxicity assay, LnCap; type: cell-based; conditions: Homo sapiens, Prostate Cancer (Androgen Dependent)
Procedure: as §1, §2

H23 = assay: Cancer cell cytotoxicity assay, H23; type: cell-based; conditions: Homo sapiens, NCI-H23; H23, Non-small cell lung cancer
Procedure: as §1, §2

MCF-7 = assay: Cancer cell cytotoxicity assay, MCF-7; type: cell-based; conditions: Homo sapiens, MCF7; MCF-7, Breast Cancer
Procedure: as §1, §2

HFL = assay: Cytotoxicity assay, normal human fibroblast cell line HFL; type: cell-based
Procedure: as §1, §2

CK2α2 = target: T2, CK2α2 (Homo sapiens, UniProt P19784); assay: Casein kinase 2 inhibition, CK2α2 subunit (32P-ATP kinase assay); type: biochemical; conditions: 20 μM cold ATP; 30 min preincubation, 20 min at 30° C.
T2 construct: CK2α2 (human full length protein; Invitrogen PV3624); purchased Invitrogen PV3624
Procedure: The ability of Compound 42 to inhibit the activity of casein kinase 2 (CK2) was determined as follows using the catalytic CK2 subunits CK2α and CK2α2. Two and one half nanograms of CK2α (human full length protein; Invitrogen PV3248), 2.5 ng of a CK2α form containing amino acids 3-339) or 10 ng of CK2α2 (human full length protein; Invitrogen PV3624) was diluted into kinase buffer (20 mM Tris pH 7.5, 10 mM MgCl2, 0.01% NP-40, 1 mM EGTA, 2 mM DTT) and incubated with varying concentrations of Compound 42 at room temperature for 30 minutes. Kinase reactions were initiated by the addition of 1 μg of CK2 substrate α-synuclein or 40 μM CK2 synthetic peptide substrate (AnaSpec, San Jose, Calif.), 20 μM cold ATP, and 20 μCi γ-^32P-ATP. The reactions were incubated at 30° C. for 20 minutes, terminated by the addition of 2× Laemmle sample buffer, boiled for 2 minutes, resolved by 12% acrylamide SDS-PAGE, and subjected to autoradiography.

MCF10A = assay: Cytotoxicity assay, MCF10A; type: cell-based; conditions: Homo sapiens, MCF-10A, Normal Breast
Procedure: as §1, §2

CDK9 = target: T3, CDK9 (Homo sapiens, UniProt P50750); assay: CDK9 inhibition (32P-ATP kinase assay); type: biochemical; conditions: PDKtide substrate, 20 μM cold ATP
T3 construct: CDK9 (human full length protein; Invitrogen PV4335); purchased Invitrogen PV4335
Procedure: The ability of Compound 42 to inhibit the activity of the kinase CDK9 was determined as follows. Twenty-five nanograms of CDK9 (human full length protein; Invitrogen PV4335) was diluted into kinase buffer (20 mM Tris pH 7.5, 10 mM MgCl2, 0.01% NP-40, 1 mM EGTA, 2 mM DTT) and incubated with varying concentrations of Compound 42 at room temperature for 30 minutes. The kinase reactions were initiated by the addition of 20 μM of CDK9/Cyclin K specific synthetic peptide substrate (PDKtide, P10-58, SignalChem), 20 μM cold ATP, and 20 μCi γ-32P-ATP. The reactions were incubated at 30° C. for 20 minutes and terminated by the addition of 0.5M o-Phosphoric acid. 10 μl of the reaction mixture was spotted on a P-30 Filtermat (PerkinElmer) and developed using autoradiography or phosphorimaging.

T2 sequence (P19784 whole entry): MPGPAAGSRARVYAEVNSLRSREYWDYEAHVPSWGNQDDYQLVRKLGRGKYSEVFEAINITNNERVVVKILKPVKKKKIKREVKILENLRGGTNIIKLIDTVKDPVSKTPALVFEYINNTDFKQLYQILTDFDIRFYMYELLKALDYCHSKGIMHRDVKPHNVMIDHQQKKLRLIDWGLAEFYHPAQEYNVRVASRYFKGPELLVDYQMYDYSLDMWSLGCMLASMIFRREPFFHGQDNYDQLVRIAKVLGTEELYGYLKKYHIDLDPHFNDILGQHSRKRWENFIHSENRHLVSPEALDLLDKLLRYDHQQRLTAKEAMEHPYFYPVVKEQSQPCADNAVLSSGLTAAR
T3 sequence (P50750 whole entry): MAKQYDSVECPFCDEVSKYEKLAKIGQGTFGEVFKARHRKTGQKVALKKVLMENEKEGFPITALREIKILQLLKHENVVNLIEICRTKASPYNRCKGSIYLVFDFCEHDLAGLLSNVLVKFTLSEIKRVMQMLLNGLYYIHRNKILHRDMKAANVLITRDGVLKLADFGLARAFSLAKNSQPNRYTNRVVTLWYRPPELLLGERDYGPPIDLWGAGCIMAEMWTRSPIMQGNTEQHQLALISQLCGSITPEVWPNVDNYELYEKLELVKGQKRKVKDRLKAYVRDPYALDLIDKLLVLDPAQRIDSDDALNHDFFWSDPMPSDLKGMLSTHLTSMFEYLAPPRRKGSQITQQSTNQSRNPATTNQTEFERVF
T3 sequence (O75909 whole entry partner): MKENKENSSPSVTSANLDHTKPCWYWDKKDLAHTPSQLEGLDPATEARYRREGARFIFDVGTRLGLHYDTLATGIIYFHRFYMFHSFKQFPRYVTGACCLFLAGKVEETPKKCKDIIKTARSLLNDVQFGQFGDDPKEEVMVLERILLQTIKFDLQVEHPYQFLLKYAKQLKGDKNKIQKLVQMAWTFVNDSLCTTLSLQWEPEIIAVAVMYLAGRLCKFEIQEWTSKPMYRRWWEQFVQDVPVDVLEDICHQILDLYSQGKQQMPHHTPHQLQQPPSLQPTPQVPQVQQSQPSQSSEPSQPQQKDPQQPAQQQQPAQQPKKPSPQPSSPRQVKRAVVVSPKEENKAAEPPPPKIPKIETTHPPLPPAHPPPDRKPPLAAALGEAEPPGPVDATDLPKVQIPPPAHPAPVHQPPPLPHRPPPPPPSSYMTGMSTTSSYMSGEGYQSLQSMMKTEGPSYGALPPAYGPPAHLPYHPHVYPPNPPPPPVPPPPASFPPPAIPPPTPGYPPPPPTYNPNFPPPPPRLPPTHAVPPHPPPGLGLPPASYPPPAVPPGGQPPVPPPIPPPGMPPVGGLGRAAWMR
T1 sequence (P11309 whole entry): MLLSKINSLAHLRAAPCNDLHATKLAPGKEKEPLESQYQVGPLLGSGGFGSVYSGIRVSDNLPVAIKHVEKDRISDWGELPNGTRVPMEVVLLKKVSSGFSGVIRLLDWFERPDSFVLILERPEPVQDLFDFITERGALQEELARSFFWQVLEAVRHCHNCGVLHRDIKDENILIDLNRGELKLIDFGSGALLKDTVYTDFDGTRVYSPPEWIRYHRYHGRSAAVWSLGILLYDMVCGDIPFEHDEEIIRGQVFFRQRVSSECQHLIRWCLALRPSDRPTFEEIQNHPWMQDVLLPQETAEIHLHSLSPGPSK

SMILES: O=C1Nc2cc(S(=O)(=O)Cc3c(Cl)cccc3Cl)ccc2S/C1=C\c1ccc(O)c([N+](=O)[O-])c1 [Compound 42, (Z)-6-((2,6-dichlorobenzyl)sulfonyl)-2-(4-hydroxy-3-nitrobenzylidene)-2H-benzo[b][1,4]thiazin-3(4H)-one]
- GI50 (BT-474): 200 nM
- GI50 (PC3): 160 nM
- cell cycle arrest in cancer cells [1]: induces cell cycle arrest
- GI50 (22Rv1): 500 nM
- GI50 (GRANTA): 80 nM
- pIC50 (PIM1): 6.65
- cell death in the normal human stem cell line (HMSC.hTERT): did not cause cell death
- GI50 (HMSC.hTERT; Human Mesenchymal Stem cells): > 10000 nM
- GI50 (HCT-116): 150 nM
- GI50 (A549): 160 nM
- GI50 (LnCap): 250 nM
- GI50 (H23): 65 nM
- GI50 (MCF-7): 1000 nM
- cell death in the normal human fibroblast cell line (HFL): did not cause cell death
- GI50 (HFL; Homo sapiens, Normal Fibroblast): > 10000 nM
- pIC50 (CK2α2): 7.08
- GI50 (MCF10A): 2500 nM
- pIC50 (CDK9): 7.03
